Laboratory results taken from patent US4861788A, “Antibacterial 1-normon-2-yl-heterocyclic compounds” (Beecham Group plc, priority 1983, dated 1989).
≈ marks a conversion by molar mass, not a printed value. Read-outs that look alike come from different tables or passages of the source.

What was measured:
[1] = test system: Staph. aureus 152 (pen. sens); assay: MIC against veterinary bacteria in vitro (Diagnostic Sensitivity Test Agar); settings: Staphylococcus aureus, 18 h
Method: (§2) The activity of the normonyl derivatives of the Examples against various veterinarily important bacteria, was assayed in vitro using two-fold serial dilutions in Diagnostic Sensitivity Test Agar inoculated with 10^4 organisms.

[2] = test system: Corynebacterium pyogenes CY1; assay: as above; settings: CY1, 18 h
Method: as §2

[3] = test system: M. hyopneumoniae J2206/183^b; assay: MIC against Mycoplasma in vitro (Friis broth with agarose); format: cell-based; settings: Mesomycoplasma hyopneumoniae, 144 h
[4] = test system: M. hyosynoviae ATCC 25591; assay: as above; format: cell-based; settings: 144 h
Strep. uberis SPU1 = assay: MIC against veterinary bacteria in vitro (Diagnostic Sensitivity Test Agar); settings: Streptococcus uberis, SPU1, 18 h
Method: as §2

Bord. bronchiseptica B09 = assay: as above; settings: Bordetella bronchiseptica, B09, 18 h
Method: as §2

[5] = test system: Erysipelothrix rhusiopathiae NCTC 8163; assay: as above; settings: NCTC8163, 18 h
Method: as §2

M. bovis NCTC 10131 = assay: microbe, parasite or virus in culture; format: cell-based; settings: NCTC10131, 144 h
E. coli E1 = assay: MIC against veterinary bacteria in vitro (Diagnostic Sensitivity Test Agar); settings: Escherichia coli, E1, 18 h
Method: as §2

Strep. agalactiae SPA1 = assay: as above; settings: Streptococcus agalactiae, SPA1, 18 h
Method: as §2

M. hyopneumoniae TAM 6N = assay: MIC against Mycoplasma in vitro (Friis broth with agarose); format: cell-based; settings: Mesomycoplasma hyopneumoniae, TAM6N, 144 h
S. dublin S7 = assay: MIC against veterinary bacteria in vitro (Diagnostic Sensitivity Test Agar); settings: Salmonella enterica, S7, 18 h
Method: as §2

Bacillus subtilis 6633 = assay: MIC against human bacteria in vitro (nutrient agar, chocolated horse blood); format: cell-based; settings: human; Bacillus subtilis 6633; 18 hours at 37° C; read-out: MIC
Method: (§1) The activity of the normonyl derivaties of the Examples against various bacteria which are important in diseases of humans, was assayed in vitro using serial dilutions in nurient agar with 5% chocolated horse blood.

Strep. spp. 64/848-C = assay: as above; format: cell-based; settings: human; Strep. spp. 64/848-C; 18 hours at 37° C; read-out: MIC
Method: as §1

[6] = test system: Haemophilus influenzae Wy21; assay: as above; format: cell-based; settings: human; Haemophilus influenzae Wy21; 18 hours at 37° C; read-out: MIC
Method: as §1

Sarcina lutea 8340 = assay: as above; format: cell-based; settings: Micrococcus luteus; human; Sarcina lutea 8340; 18 hours at 37° C; read-out: MIC
Method: as §1

Staph. aureus W2827 = assay: as above; format: cell-based; settings: Staphylococcus aureus; human; Staph. aureus W2827; 18 hours at 37° C; read-out: MIC
Method: as §1

E. coli ESS = assay: as above; format: cell-based; settings: Escherichia coli; human; E. coli ESS; 18 hours at 37° C; read-out: MIC
Method: as §1

Strep. faecalis I = assay: as above; format: cell-based; settings: Enterococcus faecalis; human; Strep. faecalis I; 18 hours at 37° C; read-out: MIC
Method: as §1

K. aerogenes A = assay: as above; format: cell-based; settings: Klebsiella aerogenes; human; K. aerogenes A; 18 hours at 37° C; read-out: MIC
Method: as §1

[7] = test system: Ps. aeruginosa NCTC 10662; assay: as above; format: cell-based; settings: Pseudomonas aeruginosa, NCTC10662; human; Ps. aeruginosa NCTC 10662; 18 hours at 37° C; read-out: MIC
Method: as §1

Staph. aureus Russell = assay: as above; format: cell-based; settings: Staphylococcus aureus; human; Staph. aureus Russell; 18 hours at 37° C; read-out: MIC
Method: as §1

P. mirabilis 889 = assay: as above; format: cell-based; settings: Proteus mirabilis; human; P. mirabilis 889; 18 hours at 37° C; read-out: MIC
Method: as §1

Strep. agalactiae 2788-B = assay: as above; format: cell-based; settings: Streptococcus agalactiae; human; Strep. agalactiae 2788-B; 18 hours at 37° C; read-out: MIC
Method: as §1

E. coli NCTC 10418 [8] = assay: as above; format: cell-based; settings: Escherichia coli, NCTC10418; human; E. coli NCTC 10418; 18 hours at 37° C; read-out: MIC
Method: as §1

Staph. aureus Oxford = assay: as above; format: cell-based; settings: Staphylococcus aureus
Method: as §1

[9] = test system: Pasteurella multocida 1633; assay: as above; format: cell-based; settings: human; Pasteurella multocida 1633; 18 hours at 37° C; read-out: MIC
Method: as §1

[10] = test system: M. hyopneumoniae NCTC 101101; assay: MIC against Mycoplasma in vitro (Friis broth with agarose); format: cell-based; settings: Mesomycoplasma hyopneumoniae, NCTC101101, 144 h
M. hyopneumoniae UCD 1 = assay: as above; format: cell-based; settings: Mesomycoplasma hyopneumoniae, UCD1, 144 h
E. coli NCTC 10418 [11] = assay: MIC against veterinary bacteria in vitro (Diagnostic Sensitivity Test Agar); settings: Escherichia coli, NCTC10418, 18 h
Method: as §2

[12] = test system: M. hyopneumoniae ATCC 25095; assay: MIC against Mycoplasma in vitro (Friis broth with agarose); format: cell-based; settings: Mesomycoplasma hyopneumoniae, ATCC25095, 144 h; M. hyopneumoniae ATCC 25095; 6 days at 37° C; read-out: MIC
[13] = test system: Corynebacterium xerosis 9755; assay: MIC against human bacteria in vitro (nutrient agar, chocolated horse blood); format: cell-based; settings: human; Corynebacterium xerosis 9755; 18 hours at 37° C; read-out: MIC
Method: as §1

[14] = test system: Strep. pyogenes R80/421-A; assay: as above; format: cell-based; settings: Streptococcus pyogenes; human; Strep. pyogenes R80/421-A; 18 hours at 37° C; read-out: MIC
Method: as §1

[15] = M. hyopneumoniae J2206/183^b, 6 days at 37° C, read-out: MIC
[16] = M. hyosynoviae ATCC 25591, 6 days at 37° C, read-out: MIC
[17] = M. hyopneumoniae TAM 6N, 6 days at 37° C, read-out: MIC
[18] = human, Staph. aureus Oxford, 18 hours at 37° C, read-out: MIC

| Compound | MIC [1] | MIC [2] | MIC (Strep. uberis SPU1) | MIC (Bord. bronchiseptica B09) | MIC [5] | MIC (M. bovis NCTC 10131) | MIC (E. coli E1) | MIC (Strep. agalactiae SPA1) | MIC (S. dublin S7) | MIC (Bacillus subtilis 6633) | MIC (Strep. spp. 64/848-C) | MIC [6] | MIC (Staph. aureus W2827) | MIC (E. coli ESS) | MIC (Strep. faecalis I) | MIC (K. aerogenes A) | MIC [7] | MIC (Staph. aureus Russell) | MIC (P. mirabilis 889) | MIC (Strep. agalactiae 2788-B) | further results |
| --- | --- | --- | --- | --- | --- | --- | --- | --- | --- | --- | --- | --- | --- | --- | --- | --- | --- | --- | --- | --- | --- |
| CC(=Cc1nnc(-c2ccc(N(C)C)cc2)o1)CC1OCC(CC2OC2C(C)C(C)O)C(O)C1O (stereo not drawn) [Example 10, 2-(4-Dimethylaminophenyl)-5-(1-normon-2-yl)-1,3,4-oxadiazole A] | 5 µg/mL (≈ 10.3 µM) | > 80 µg/mL | 20 µg/mL (≈ 41 µM) | > 80 µg/mL | 40 µg/mL (≈ 82 µM) | 0.25 µg/mL (≈ 0.513 µM) | > 80 µg/mL | > 80 µg/mL | > 80 µg/mL | 2 µg/mL (≈ 4.1 µM) | 16 µg/mL (≈ 32.8 µM) | 2 µg/mL (≈ 4.1 µM) | 4 µg/mL (≈ 8.2 µM) | 2 µg/mL (≈ 4.1 µM) | > 128 µg/mL | > 128 µg/mL | > 128 µg/mL | 4 µg/mL (≈ 8.2 µM) | > 128 µg/mL | 16 µg/mL (≈ 32.8 µM) | MIC [3]: 5 µg/mL (≈ 10.3 µM); MIC [4]: 2.5 µg/mL (≈ 5.13 µM); MIC (M. hyopneumoniae TAM 6N): 5 µg/mL (≈ 10.3 µM); MIC (Sarcina lutea 8340): > 128 µg/mL; MIC (E. coli NCTC 10418 [8]): > 128 µg/mL; MIC (Staph. aureus Oxford; 18 h): 1 µg/mL (≈ 2.05 µM); MIC [9]: 16 µg/mL (≈ 32.8 µM); MIC [10]: 5 µg/mL (≈ 10.3 µM); MIC (M. hyopneumoniae UCD 1): 2.5 µg/mL (≈ 5.13 µM); MIC (E. coli NCTC 10418 [11]): > 80 µg/mL |
| CC(=Cc1nnc(-c2cccc(C#N)c2)o1)CC1OCC(CC2OC2C(C)C(C)O)C(O)C1O (stereo not drawn) [Example 11, 2-(m-Cyanophenyl)-5-(1-normon-2-yl)-1,3,4-oxadiazole A] | 20 µg/mL (≈ 42.6 µM) | > 80 µg/mL | 2.5 µg/mL (≈ 5.32 µM) | 40 µg/mL (≈ 85.2 µM) | 40 µg/mL (≈ 85.2 µM) | 0.05 µg/mL (≈ 0.106 µM) | > 80 µg/mL | 5 µg/mL (≈ 10.6 µM) | > 80 µg/mL | 2 µg/mL (≈ 4.26 µM) | 2 µg/mL (≈ 4.26 µM) | 0.5 µg/mL (≈ 1.06 µM) | 16 µg/mL (≈ 34.1 µM) | 2 µg/mL (≈ 4.26 µM) | > 64 µg/mL | > 64 µg/mL | > 64 µg/mL | 32 µg/mL (≈ 68.2 µM) | > 64 µg/mL | 2 µg/mL (≈ 4.26 µM) | MIC [3, 15]: 0.25 µg/mL (≈ 0.532 µM); MIC [4, 16]: 0.5 µg/mL (≈ 1.06 µM); MIC (M. hyopneumoniae TAM 6N; [17]): 0.25 µg/mL (≈ 0.532 µM); MIC [12]: 0.25 µg/mL (≈ 0.532 µM); MIC (Sarcina lutea 8340): > 64 µg/mL; MIC (E. coli NCTC 10418 [8]): > 64 µg/mL; MIC (Staph. aureus Oxford; [18]): 8 µg/mL (≈ 17 µM); MIC [9]: 2 µg/mL (≈ 4.26 µM); MIC [10]: 0.25 µg/mL (≈ 0.532 µM); MIC (M. hyopneumoniae UCD 1): 0.25 µg/mL (≈ 0.532 µM); MIC (E. coli NCTC 10418 [11]): > 80 µg/mL |
| COC(=O)CCCCCCCCn1nnnc1C=C(C)CC1OCC(CC2OC2C(C)C(C)O)C(O)C1O (stereo not drawn) [Example 13, 1-(8-Methoxycarbonyloctyl)-5-(1-normon-2-yl)-1H-tetrazole A] | 20 µg/mL (≈ 37.1 µM) | > 80 µg/mL | 40 µg/mL (≈ 74.3 µM) | 80 µg/mL (≈ 149 µM) | > 80 µg/mL | 1 µg/mL (≈ 1.86 µM) | > 80 µg/mL | > 80 µg/mL | > 80 µg/mL | > 64 µg/mL | > 64 µg/mL | 16 µg/mL (≈ 29.7 µM) | > 64 µg/mL | > 64 µg/mL | > 64 µg/mL | > 64 µg/mL | > 64 µg/mL | > 64 µg/mL | > 64 µg/mL | > 64 µg/mL | MIC [3, 15]: > 10 µg/mL; MIC [4, 16]: > 10 µg/mL; MIC (M. hyopneumoniae TAM 6N; [17]): > 10 µg/mL; MIC [12]: > 10 µg/mL; MIC [13]: > 64 µg/mL; MIC [14]: > 64 µg/mL; MIC (E. coli NCTC 10418 [8]): > 64 µg/mL; MIC (Staph. aureus Oxford; [18]): > 64 µg/mL; MIC [9]: 64 µg/mL (≈ 119 µM); MIC ([10]; M. hyopneumoniae NCTC 101101, 6 days at 37° C, read-out: MIC): > 10 µg/mL; MIC (M. hyopneumoniae UCD 1; M. hyopneumoniae UCD 1, 6 days at 37° C, read-out: MIC): > 10 µg/mL; MIC (E. coli NCTC 10418 [11]): > 80 µg/mL |
